For series [1], the target named is T1, V-ATPase (Bos taurus, UniProt P31404).
T1 construct: from tissue; host or cells: bovine adrenal medulla chromaffin granule membranes
The series is described as follows: ATP-dependent proton transport by V-ATPase (acridine orange / oxonol-V fluorescence quenching). The series is classed as biochemical, bovine. As to the method: Chromaffin granule membranes were prepared from adrenal glands collected from slaughtered cattle according to Reference A (Nathan Nelson et al., 1988, Chromaffin Granule Proton Pump, Methods in Enzymology, 157, 619-633). Chromaffin granule membranes prepared by sucrose density gradient centrifugation were suspended in 2 ml of SME buffer (20 mM MOPS-tris (pH 7.0), 0.3 M sucrose, 5 mM EDTA, 10 µg/ml leupeptin, and 10 µg/ml pepstatin) + 25% glycerol, and the resulting suspension was aliquoted and stored at -80°C. Under these conditions, the ATP transport activity, the V-ATPase activity, and the catecholamine transport activity remain fully active for at least one year.
ATP-dependent proton transport by V-ATPase was measured according to Reference B. Proton transport activity was measured using a spectrofluorometer at excitation wavelength of 492 nm and a fluorescence wavelength 540 nm, wherein fluorescence quenching of acridine orange was used as an index (N = 2). The transmembrane potential generated was measured using a spectrofluorometer at an excitation wavelength of 580 nm and a fluorescence wavelength of 630 nm, wherein fluorescence quenching of oxonol-V was used as an index (N = 2). The acridine measurement liquid (2 ml) contained 20 mM MOPS-tris (pH 7.0), 0.2 M sucrose, 0.1 M potassium chloride, 5 mM magnesium acetate, 0.2 µg valinomycin, 2 µM acridine orange, and about 20 µg of chromaffin granules. The oxonol-V measurement liquid (2 ml) contained 20 mM MOPS-tris (pH 7.0), 0.3 M sucrose, 5 mM magnesium acetate, 5 µM oxonol-V, and about 20 µg of chromaffin granules.
Chromaffin granule membrane vesicles were prepared in the same manner as in Example 5, and uptake of radiolabeled ATP into the vesicles was measured. Transport activity of catecholamine (dopamine) and ATP-dependent proton transport by V-ATPase were also measured in the same manner as in Example 5.

Series [2] concerns human epidermal keratinocytes. The series is described as follows: LPS-stimulated ATP secretion in keratinocytes. It counts as cell-based. The conditions noted are these: 18 hours incubation, LPS 10 µg/ml 10 minutes, N = 8. How it is done:
Keratinocytes were cultured in the same manner as in Example 1. Keratinocytes were cultured at 2.5 × 10^4 cells/well in a 24-well plate at 37°C in 5% CO2 for 4 days. The medium was replaced with a test solution (Hanks' balanced salt solution (HBSS) (manufactured by Gibco) supplemented with imeglimin, metformin, or clodronate), and then incubation was performed at 37°C in 5% CO2 for 18 hours. Thereafter, LPS (10 µg/ml) was added thereto, and incubation was further carried out for 10 minutes, followed by collection of 200 µl of the supernatant. The supernatant was immediately treated on a heat block at 95°C for 10 minutes, and ATP in the supernatant was quantified using an ATP Assay Kit - Luminescence (manufactured by Dojindo) (N = 8).

For a further series, the system named is MCD diet-induced NASH. The conditions noted are these: administration of clodronate; Non Patent Literature 4; cited from earlier work.
The subject of the next series is ATP-loaded vesicles. The series is described as follows: MANT-ATP accumulation in ATP-loaded granules of keratinocytes (confocal microscopy). It counts as cell-based, human. The conditions noted are these: 10 µM imeglimin, 19 hours; 0.3 mM MANT-ATP. As to the method: Keratinocytes were cultured in the same manner as in Example 8. Keratinocytes were cultured at 4 × 10^4 cells/ml in a glass-bottom dish (35 mm, manufactured by Matsunami Glass Ind., Ltd.) at 37°C in 5% CO2 for 2 days. The culture medium was then replaced with a medium supplemented with MANT-ATP (manufactured by Invitrogen) at a final concentration of 0.3 mM, and further incubation was performed for 4.5 hours. Subsequently, imeglimin was added thereto to a final concentration of 10 µM, and further incubation was performed at 37°C in 5% CO2 for 19 hours. Thereafter, the cells were washed twice with HBSS (manufactured by Gibco) and observed using an inverted confocal laser microscope (FV-1000 OSR, manufactured by Olympus Corporation).

The next series addresses T2, VNUT (Homo sapiens, UniProt Q9BYT1).
T2 sequence (Q9BYT1 1-436): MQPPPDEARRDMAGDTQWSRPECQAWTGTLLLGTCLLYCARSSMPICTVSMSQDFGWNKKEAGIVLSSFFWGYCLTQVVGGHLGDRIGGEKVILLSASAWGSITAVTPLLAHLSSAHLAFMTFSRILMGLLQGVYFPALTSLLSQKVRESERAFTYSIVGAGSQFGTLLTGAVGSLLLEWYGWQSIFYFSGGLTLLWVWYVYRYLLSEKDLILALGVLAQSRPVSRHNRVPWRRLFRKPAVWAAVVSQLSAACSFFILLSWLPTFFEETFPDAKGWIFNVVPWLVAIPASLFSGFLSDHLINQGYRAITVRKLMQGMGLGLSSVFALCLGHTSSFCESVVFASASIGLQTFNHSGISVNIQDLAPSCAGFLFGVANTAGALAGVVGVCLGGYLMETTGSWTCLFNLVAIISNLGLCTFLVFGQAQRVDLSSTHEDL
The series is described as follows: Inhibitory effect on VNUT (data not shown). It counts as biochemical.

Series [3] deals with V-ATPase (Homo sapiens, UniProt P38606). In words: Inhibitory effect on V-ATPase (data not shown). It counts as biochemical.
Sequence of V-ATPase (Homo sapiens, UniProt P38606) (P38606 whole entry): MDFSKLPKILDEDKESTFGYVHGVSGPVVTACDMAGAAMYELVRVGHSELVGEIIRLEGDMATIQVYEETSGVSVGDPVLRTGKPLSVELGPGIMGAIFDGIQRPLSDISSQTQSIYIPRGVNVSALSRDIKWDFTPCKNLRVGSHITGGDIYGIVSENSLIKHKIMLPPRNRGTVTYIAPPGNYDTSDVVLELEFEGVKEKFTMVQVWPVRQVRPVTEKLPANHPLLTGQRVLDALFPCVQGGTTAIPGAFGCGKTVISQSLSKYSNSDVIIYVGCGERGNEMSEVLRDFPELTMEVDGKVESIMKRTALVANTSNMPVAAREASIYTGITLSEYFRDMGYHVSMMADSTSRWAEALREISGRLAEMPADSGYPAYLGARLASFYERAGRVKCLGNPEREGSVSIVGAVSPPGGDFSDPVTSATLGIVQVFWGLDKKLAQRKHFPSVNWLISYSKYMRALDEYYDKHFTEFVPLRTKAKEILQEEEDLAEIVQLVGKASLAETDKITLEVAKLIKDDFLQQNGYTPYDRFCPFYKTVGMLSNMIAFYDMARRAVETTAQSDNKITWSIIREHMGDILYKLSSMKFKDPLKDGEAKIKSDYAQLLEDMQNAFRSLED
Series [4] deals with human epidermal keratinocytes. The series is described as follows: Imiquimod-induced ATP secretion in keratinocytes. The settings on record: 18 hours incubation, imiquimod 15 minutes, N = 8. The series is classed as cell-based. As to the method: In the same manner as in Example 1, keratinocytes were cultured at 2.5×10^4 cells/well in a 24-well plate at 37°C in 5% CO2 for 4 days. The medium was replaced with HBSS (manufactured by Gibco) supplemented with 1 µM or 10 µM imeglimin, and incubation was performed at 37°C in 5% CO2 for 18 hours. Thereafter, imiquimod was added thereto at 1 µg/ml or 0.5 µg/ml, and incubation was performed for 15 minutes, followed by collection of 200 µl of the supernatant. The supernatant was immediately treated on a heat block at 95°C for 10 minutes, and ATP in the supernatant was quantified using a ATP Assay Kit - Luminescence (manufactured by Dojindo) (N = 8).

The conditions of series [5]: 1 g of imeglimin hydrochloride daily for one week; cited from earlier work.

The values below come from EP4696306A1, “ADENOSINE TRIPHOSPHATE SECRETION INHIBITOR, HEPATIC STELLATE CELL ACTIVATION INHIBITOR, HEPATIC STELLATE CELL DEACTIVATOR, HEPATIC FIBROSIS THERAPEUTIC AGENT, NON-ALCOHOLIC STEATOHEPATITIS THERAPEUTIC AGENT, PSORIASIS THERAPEUTIC AGENT, AND USE OF COMPOUND FOR PRODUCING ADENOSINE TRIPHOSPHATE …” (KURUME UNIVERSITY, priority 2023, dated 2024).

T1 sequence (P31404 whole entry, looked up): as the sequence (P38606 whole entry) above, with L10R, I131V, S157N, V199I, T204S, D576E, L590V, S599A counted along it

Turning to `C=C(OP(=O)(O)O)C(=O)O` [PEP, phosphoenolpyruvic acid], on V-ATPase [1] (addition of 5 mM PEP, ATP alone quenched by 40%, N = 2), the “quenching of oxonol-V fluorescence (transmembrane potential)” value was “did not change the level of quenching”. Moreover, on V-ATPase [1] (addition of 5 mM PEP, ATP alone quenched by 62%, N = 2), the “quenching of acridine orange fluorescence (proton transport)” value is given as “did not change the level of quenching”. The “inhibition of V-ATPase” value against V-ATPase [1] (concentrations of up to 5 mM, data not shown) is on record as “did not inhibit”.
For `O=P(O)(O)C(Cl)(Cl)P(=O)(O)O` [clodronate], in series [2] (10 µM), the “ATP secretion upon LPS stimulation” value is listed as “almost completely inhibited”. In addition, the “NASH activity score, inflammatory cell infiltration, and hepatic fibrosis” value in the series with MCD diet-induced NASH is “improves the NASH activity score, inflammatory cell infiltration, and hepatic fibrosis”.
As to `C[C@H]1N=C(N(C)C)N=C(N)N1` [imeglimin], the “ATP secretion upon LPS stimulation” value in series [2] (1 µM) and in series [2] (10 µM) was “almost completely inhibited” each time. Further, the “accumulation of MANT-ATP in granules” value with ATP-loaded vesicles was “this accumulation was absent”. Besides, on VNUT, the “inhibitory effect on VNUT” value is given as “neither imeglimin nor metformin exhibited a strong inhibitory effect”. Moreover, the “inhibitory effect on V-ATPase” value on V-ATPase [3] is recorded as “neither imeglimin nor metformin exhibited a strong inhibitory effect”. Also, the “ATP secretion promoted by imiquimod” value in series [4] (1 µM imeglimin) and in series [4] (10 µM imeglimin) was “strongly inhibited” throughout. Moreover, the blood imeglimin concentration in series [5] is 9 µM.
